{"source": "patent US20220281848A1", "about": "“PYRAZOLE-SUBSTITUTED PYRROLIDINONES AS HERBICIDES” (FMC Corporation, priority 2019, published 2022)", "assay_type_in_all_cases": "in vivo", "key": {"[1]": {"test_system": "ivy-leaved morning glory (Ipomoea hederacea, IPOHE)", "assay": "Test A pre-emergence, ivy-leaved morning glory", "conditions": "after 13 d", "outline": "(§1)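 Seeds sown in pots of standard soil and sprayed one day later, pre-emergence, at 15.625, 62.5 or 250 g/ha in acetone/water (50:50) with 0.5% Tween 20. Grown in glasshouse at 24/16 °C, 14 h light, 65% humidity. Damage scored after 13 d (0 none, 100 total).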"}, "[2]": {"test_system": "redroot pigweed (Amaranthus retroflexus, AMARE)", "assay": "Test A pre-emergence, redroot pigweed", "conditions": "after 13 d", "outline": "as §1"}, "[3]": {"test_system": "redroot pigweed (Amaranthus retroflexus, AMARE)", "assay": "Test A post-emergence, redroot pigweed", "conditions": "after 13 d", "outline": "(§2)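 Visual damage at 13 d after treatment, rated from 0 (no damage) to 100 (total damage). Eight-day-old pot-grown plants had been sprayed with 15.625, 62.5 or 250 g/ha of compound in aqueous acetone (50:50) containing 0.5% Tween 20.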"}, "[4]": {"test_system": "velvetleaf (Abutilon theophrasti, ABUTH)", "assay": "Test A post-emergence, velvetleaf", "conditions": "after 13 d", "outline": "as §2"}, "plants": {"test_system": "plants", "assay": "Test D post-emergence, other plants of Tables D2 and D4", "conditions": "\"Cereals\" Postemergent, evaluated after 15 d", "outline": "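Damage was rated visually from 0 (none) to 100 (total), at 20 DAA for pre-emergence and 15 d for post-emergence. Plants grew from safener-treated seed in a glasshouse at 24/18° C. or 20/16° C. day/night, 65% humidity, watered twice daily.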"}}}
{"compound": "CN1CC(c2cc(C(F)(F)F)n(C)n2)C(C(=O)Nc2cccc(F)n2)C1=O", "note": "(racemic) [Compound 24]", "values": [{"measurement": "damage to plant (100=total damage; 0=no damage) IPOHE", "setting": "[1]; Pre-Emergence at 15.625 g/ha", "result": 0}, {"measurement": "damage to plant (100=total damage; 0=no damage) IPOHE", "setting": "[1]; Pre-Emergence at 62.5 g/ha", "result": 0}, {"measurement": "damage to plant (100=total damage; 0=no damage) IPOHE", "setting": "[1]; Pre-Emergence at 250 g/ha", "result": 40}, {"measurement": "damage to plant (100=total damage; 0=no damage) AMARE", "setting": "[2]; Pre-Emergence at 15.625 g/ha", "result": 0}, {"measurement": "damage to plant (100=total damage; 0=no damage) AMARE", "setting": "[2]; Pre-Emergence at 62.5 g/ha", "result": 0}, {"measurement": "damage to plant (100=total damage; 0=no damage) AMARE", "setting": "[2]; Pre-Emergence at 250 g/ha", "result": 0}, {"measurement": "damage to plant (100=total damage; 0=no damage) AMARE", "setting": "[3]; Post-Emergence at 15.625 g/ha", "result": 0}, {"measurement": "damage to plant (100=total damage; 0=no damage) AMARE", "setting": "[3]; Post-Emergence at 62.5 g/ha", "result": 0}, {"measurement": "damage to plant (100=total damage; 0=no damage) AMARE", "setting": "[3]; Post-Emergence at 250 g/ha", "result": 0}, {"measurement": "damage to plant (100=total damage; 0=no damage) ABUTH", "setting": "[4]; Post-Emergence at 15.625 g/ha", "result": 0}, {"measurement": "damage to plant (100=total damage; 0=no damage) ABUTH", "setting": "[4]; Post-Emergence at 62.5 g/ha", "result": 0}, {"measurement": "damage to plant (100=total damage; 0=no damage) ABUTH", "setting": "[4]; Post-Emergence at 250 g/ha", "result": 0}, {"measurement": "ALOMY damage rating (100=total damage to plant; 0=no damage to plant)", "setting": "plants; Rates 130", "result": 0}, {"measurement": "ALOMY damage rating (100=total damage to plant; 0=no damage to plant)", "setting": "plants; Rates 250", "result": 0}, {"measurement": "ALOMY damage rating (100=total damage to plant; 0=no damage to plant)", "setting": "plants; Rates 500", "result": 0}, {"measurement": "AVEFA damage rating (100=total damage to plant; 0=no damage to plant)", "setting": "plants; Rates 130", "result": 0}, {"measurement": "AVEFA damage rating (100=total damage to plant; 0=no damage to plant)", "setting": "plants; Rates 250", "result": 0}, {"measurement": "AVEFA damage rating (100=total damage to plant; 0=no damage to plant)", "setting": "plants; Rates 500", "result": 0}, {"measurement": "BEAVA damage rating (100=total damage to plant; 0=no damage to plant)", "setting": "plants; Rates 130", "result": 0}, {"measurement": "BEAVA damage rating (100=total damage to plant; 0=no damage to plant)", "setting": "plants; Rates 250", "result": 0}, {"measurement": "BEAVA damage rating (100=total damage to plant; 0=no damage to plant)", "setting": "plants; Rates 500", "result": 0}, {"measurement": "BROTE damage rating (100=total damage to plant; 0=no damage to plant)", "setting": "plants; Rates 130", "result": 0}, {"measurement": "BROTE damage rating (100=total damage to plant; 0=no damage to plant)", "setting": "plants; Rates 250", "result": 0}, {"measurement": "BROTE damage rating (100=total damage to plant; 0=no damage to plant)", "setting": "plants; Rates 500", "result": 0}, {"measurement": "BRSNN damage rating (100=total damage to plant; 0=no damage to plant)", "setting": "plants; Rates 130", "result": 0}, {"measurement": "BRSNN damage rating (100=total damage to plant; 0=no damage to plant)", "setting": "plants; Rates 250", "result": 0}, {"measurement": "BRSNN damage rating (100=total damage to plant; 0=no damage to plant)", "setting": "plants; Rates 500", "result": 0}, {"measurement": "CHEAL damage rating (100=total damage to plant; 0=no damage to plant)", "setting": "plants; Rates 130", "result": 0}, {"measurement": "CHEAL damage rating (100=total damage to plant; 0=no damage to plant)", "setting": "plants; Rates 250", "result": 10}, {"measurement": "CHEAL damage rating (100=total damage to plant; 0=no damage to plant)", "setting": "plants; Rates 500", "result": 40}, {"measurement": "GALAP damage rating (100=total damage to plant; 0=no damage to plant)", "setting": "plants; Rates 130", "result": 0}, {"measurement": "GALAP damage rating (100=total damage to plant; 0=no damage to plant)", "setting": "plants; Rates 250", "result": 0}, {"measurement": "GALAP damage rating (100=total damage to plant; 0=no damage to plant)", "setting": "plants; Rates 500", "result": 20}, {"measurement": "HORVW damage rating (100=total damage to plant; 0=no damage to plant)", "setting": "plants; Rates 130", "result": 0}, {"measurement": "HORVW damage rating (100=total damage to plant; 0=no damage to plant)", "setting": "plants; Rates 250", "result": 0}, {"measurement": "HORVW damage rating (100=total damage to plant; 0=no damage to plant)", "setting": "plants; Rates 500", "result": 0}, {"measurement": "KCHSC damage rating (100=total damage to plant; 0=no damage to plant)", "setting": "plants; Rates 130", "result": 0}, {"measurement": "KCHSC damage rating (100=total damage to plant; 0=no damage to plant)", "setting": "plants; Rates 250", "result": 0}, {"measurement": "KCHSC damage rating (100=total damage to plant; 0=no damage to plant)", "setting": "plants; Rates 500", "result": 0}, {"measurement": "LOLPE damage rating (100=total damage to plant; 0=no damage to plant)", "setting": "plants; Rates 130", "result": 0}, {"measurement": "LOLPE damage rating (100=total damage to plant; 0=no damage to plant)", "setting": "plants; Rates 250", "result": 0}, {"measurement": "LOLPE damage rating (100=total damage to plant; 0=no damage to plant)", "setting": "plants; Rates 500", "result": 0}, {"measurement": "POAAN damage rating (100=total damage to plant; 0=no damage to plant)", "setting": "plants; Rates 130", "result": 0}, {"measurement": "POAAN damage rating (100=total damage to plant; 0=no damage to plant)", "setting": "plants; Rates 250", "result": 0}, {"measurement": "POAAN damage rating (100=total damage to plant; 0=no damage to plant)", "setting": "plants; Rates 500", "result": 0}, {"measurement": "POLCO damage rating (100=total damage to plant; 0=no damage to plant)", "setting": "plants; Rates 130", "result": 0}, {"measurement": "POLCO damage rating (100=total damage to plant; 0=no damage to plant)", "setting": "plants; Rates 250", "result": 0}, {"measurement": "POLCO damage rating (100=total damage to plant; 0=no damage to plant)", "setting": "plants; Rates 500", "result": 0}, {"measurement": "SINAR damage rating (100=total damage to plant; 0=no damage to plant)", "setting": "plants; Rates 130", "result": 0}, {"measurement": "SINAR damage rating (100=total damage to plant; 0=no damage to plant)", "setting": "plants; Rates 250", "result": 0}, {"measurement": "SINAR damage rating (100=total damage to plant; 0=no damage to plant)", "setting": "plants; Rates 500", "result": 0}]}
